Data taken from patent US6362188B1, “Farnesyl protein transferase inhibitors” (Schering Corporation, priority 1998, dated 2002).

Legend:
Human tumor cells = experiment: Soft Agar Assay (anchorage-independent growth); format: cell-based; details: colony outgrowth in soft agar, stated as a range for the group
Experimental: Anchorage-independent growth is a characteristic of tumorigenic cell lines. Human tumor cells can be suspended in growth medium containing 0.3% agarose and an indicated concentration of a farnesyl transferase inhibitor. The solution can be overlayed onto growth medium solidified with 0.6% agarose containing the same concentration of farnesyl transferase inhibitor as the top layer. After the top layer is solidified, plates can be incubated for 10-16 days at 37° C. under 5% CO2 to allow colony outgrowth. After incubation, the colonies can be stained by overlaying the agar with a solution of MTT (3-[4,5-dimethyl-thiazol-2-yl]-2,5-diphenyltetrazolium bromide, Thiazolyl blue) (1 mg/mL in PBS). Colonies can be counted and the IC50's can be determined.

Cc1ncn(CC2CCCN(C(=O)C3CN(C4c5ccc(Cl)cc5CCc5cccnc54)CCN3C(=O)OC3CCCCC3)C2)c1C (single isomer, unassigned) [47(H)]
melting point: 106 to 125 °C

Cc1cn(CC2CCCN(C(=O)C3CN(C4c5ccc(Cl)cc5CCc5cc(Br)cnc54)CCN3C(=O)C(C)(C)C)C2)cn1 (centres unmarked) [Example 180]
IC50 (Human tumor cells): 0.05 to 30 nM

Cc1cn(C[C@H]2CCCN(C(=O)[C@H]3CN([C@@H]4c5ccc(Cl)cc5CCc5cc(Br)cnc54)CCN3C(=O)OC(C)C)C2)cn1 [Example 183]
IC50 (Human tumor cells): 0.05 to 30 nM

Cc1cn(C[C@H]2CCCN(C(=O)[C@H]3CN([C@H]4c5ccc(Cl)cc5CCc5cc(Br)cnc54)CCN3C(=O)OC(C)C)C2)cn1 [Example 184]
IC50 (Human tumor cells): 0.05 to 30 nM

Cc1cn(C[C@H]2CCCN(C(=O)[C@H]3CN([C@@H]4c5ccc(Cl)cc5CCc5cc(Br)cnc54)CCN3C(=O)OC3CCCCC3)C2)cn1 [Example 185]
IC50 (Human tumor cells): 0.05 to 30 nM

Cc1cn(C[C@H]2CCCN(C(=O)[C@H]3CN([C@H]4c5ccc(Cl)cc5CCc5cc(Br)cnc54)CCN3C(=O)OC3CCCCC3)C2)cn1 [Example 186]
IC50 (Human tumor cells): 0.05 to 30 nM

Cc1cn(C[C@H]2CCCN(C(=O)[C@H]3CN([C@@H]4c5ccc(Cl)cc5CCc5cc(Br)cnc54)CCN3C(=O)OCC(C)(C)C)C2)cn1 [Example 187]
IC50 (Human tumor cells): 0.05 to 30 nM

Cc1cn(CC2CCCN(C(=O)C3CN(C4c5ccc(Cl)cc5CCc5cc(Br)cnc54)CCN3C(=O)OCC(C)(C)C)C2)cn1 (centres unmarked) [Example 188]
IC50 (Human tumor cells): 0.05 to 30 nM

Cc1cn(C[C@H]2CCCN(C(=O)[C@H]3CN([C@@H]4c5ccc(Cl)cc5CCc5cc(Br)cnc54)CCN3C(=O)NC(C)(C)C)C2)cn1 [Example 191]
IC50 (Human tumor cells): 0.05 to 30 nM

Cc1cn(C[C@H]2CCCN(C(=O)[C@H]3CN([C@H]4c5ccc(Cl)cc5CCc5cc(Br)cnc54)CCN3C(=O)NC(C)(C)C)C2)cn1 [Example 192]
IC50 (Human tumor cells): 0.05 to 30 nM

Cc1cn(C[C@@H]2CCCN(C(=O)[C@H]3CN([C@H]4c5ccc(Cl)cc5CCc5cc(Br)cnc54)CCN3C(=O)C3(C)CC3)C2)cn1 [Example 201]
IC50 (Human tumor cells): 0.05 to 30 nM

Cc1cn(C[C@@H]2CN(C(=O)[C@H]3CN([C@@H]4c5ccc(Cl)cc5CCc5cc(Br)cnc54)CCN3C(=O)OC3CCCCC3)CCS2(=O)=O)cn1 [Example 209]
IC50 (Human tumor cells): 0.05 to 30 nM

Cc1cn(C[C@@H]2CN(C(=O)[C@H]3CN([C@H]4c5ccc(Cl)cc5CCc5cc(Br)cnc54)CCN3C(=O)OC3CCCCC3)CCS2(=O)=O)cn1 [Example 210]
IC50 (Human tumor cells): 0.05 to 30 nM

Cc1cn(C[C@H]2CN(C(=O)[C@H]3CN([C@H]4c5ccc(Cl)cc5CCc5cc(Br)cnc54)CCN3C(=O)OC3CCCCC3)CCS2(=O)=O)cn1 [Example 211]
IC50 (Human tumor cells): 0.05 to 30 nM

Cc1nc(C)n(C[C@H]2CCCN(C(=O)[C@H]3CN([C@H]4c5ccc(Cl)cc5CCc5cc(Br)cnc54)CCN3C(=O)OC3CCCCC3)C2)c1C [Example 214]
IC50 (Human tumor cells): 0.05 to 30 nM

Cc1cn(CC[C@H]2CCCN2C(=O)[C@H]2CN(C3c4ccc(Cl)cc4CCc4cc(Br)cnc43)CCN2C(=O)OC2CCCCC2)cn1 (some centres unmarked) [Example 215]
IC50 (Human tumor cells): 0.05 to 30 nM

Cc1cn(CC[C@@H]2CCCN2C(=O)[C@H]2CN(C3c4ccc(Cl)cc4CCc4cc(Br)cnc43)CCN2C(=O)OC2CCCCC2)cn1 (some centres unmarked) [Example 216]
IC50 (Human tumor cells): 0.05 to 30 nM

Cc1cn(C[C@@H]2CCCN(C(=O)[C@H]3CN([C@@H]4c5ccc(Cl)cc5CCc5cc(Cl)cnc54)CCN3C(=O)OC(C)C)C2)cn1 [Example 231]
IC50 (Human tumor cells): 0.05 to 30 nM

Cc1cn(C[C@@H]2CCCN(C(=O)[C@H]3CN([C@H]4c5ccc(Cl)cc5CCc5cc(Cl)cnc54)CCN3C(=O)OC(C)C)C2)cn1 [Example 232]
IC50 (Human tumor cells): 0.05 to 30 nM

Cc1cn(CC2CCCN(C(=O)C3CN(C4c5ccc(Cl)cc5CCc5cc(Cl)cnc54)CCN3C(=O)OCC(C)(C)C)C2)cn1 (centres unmarked) [Example 233]
IC50 (Human tumor cells): 0.05 to 30 nM

Cc1cn(C[C@@H]2CCCN(C(=O)[C@H]3CN([C@H]4c5ccc(Cl)cc5CCc5cc(Cl)cnc54)CCN3C(=O)OCC(C)(C)C)C2)cn1 [Example 234]
IC50 (Human tumor cells): 0.05 to 30 nM

Cc1cn(C[C@@H]2CCCN(C(=O)[C@H]3CN([C@H]4c5ccc(Cl)cc5CCc5cc(Cl)cnc54)CCN3C(=O)NC(C)(C)C)C2)cn1 [Example 238]
IC50 (Human tumor cells): 0.05 to 30 nM

Cc1cn(C[C@@H]2CCCN(C(=O)[C@H]3CN([C@@H]4c5ccc(Cl)cc5CCc5cc(Cl)cnc54)CCN3C(=O)C(C)(C)C)C2)cn1 [Example 239]
IC50 (Human tumor cells): 0.05 to 30 nM

Cc1cn(C[C@@H]2CCCN(C(=O)[C@H]3CN([C@H]4c5ccc(Cl)cc5CCc5cc(Cl)cnc54)CCN3C(=O)C(C)(C)C)C2)cn1 [Example 240]
IC50 (Human tumor cells): 0.05 to 30 nM

Cc1cn(C[C@H]2CCCN(C(=O)[C@H]3CN([C@@H]4c5ccc(Cl)cc5CCc5cc(Cl)cnc54)CCN3C(=O)OCC(C)(C)C)C2)cn1 [Example 245]
IC50 (Human tumor cells): 0.05 to 30 nM

Cc1cn(C[C@@H]2CCCN(C(=O)[C@H]3CN([C@@H]4c5ccccc5CCc5cc(Cl)cnc54)CCN3C(=O)OCC(C)(C)C)C2)cn1 [Example 297]
IC50 (Human tumor cells): 0.05 to 30 nM

Cc1cn(CC2CCCN(C(=O)C3CN(C4c5ccccc5CCc5cc(Cl)cnc54)CCN3C(=O)OCC(C)(C)C)C2)cn1 (centres unmarked) [Example 298]
IC50 (Human tumor cells): 0.05 to 30 nM

Cc1cn(C[C@@H]2CCCN(C(=O)[C@H]3CN([C@@H]4c5ccccc5CCc5cc(Cl)cnc54)CCN3C(=O)OCC3CC3)C2)cn1 [Example 299]
IC50 (Human tumor cells): 0.05 to 30 nM

Cc1cn(CC2CCCN(C(=O)C3CN(C4c5ccccc5CCc5cc(Cl)cnc54)CCN3C(=O)OCC3CC3)C2)cn1 (centres unmarked) [Example 300]
IC50 (Human tumor cells): 0.05 to 30 nM

Cc1cn(C[C@@H]2CCCN(C(=O)[C@H]3CN([C@@H]4c5ccccc5CCc5cc(Cl)cnc54)CCN3C(=O)NC(C)(C)C)C2)cn1 [Example 301]
IC50 (Human tumor cells): 0.05 to 30 nM

Cc1cn(C[C@@H]2CCCN(C(=O)[C@H]3CN([C@H]4c5ccccc5CCc5cc(Cl)cnc54)CCN3C(=O)NC(C)(C)C)C2)cn1 [Example 302]
IC50 (Human tumor cells): 0.05 to 30 nM

Cc1cn(C[C@@H]2CCCN(C(=O)[C@H]3CN([C@@H]4c5ccccc5CCc5cc(Cl)cnc54)CCN3C(=O)C(C)(C)C)C2)cn1 [Example 303]
IC50 (Human tumor cells): 0.05 to 30 nM

Cc1cn(C[C@H]2CCCN(C(=O)[C@H]3CN([C@H]4c5ccccc5CCc5cc(Cl)cnc54)CCN3C(=O)C(C)(C)C)C2)cn1 [Example 316]
IC50 (Human tumor cells): 0.05 to 30 nM

Cc1cn(C[C@H]2CCCN(C(=O)[C@H]3CN([C@@H]4c5ccccc5CCc5cc(Cl)cnc54)CCN3C(=O)NC3CCCCC3)C2)cn1 [Example 317]
IC50 (Human tumor cells): 0.05 to 30 nM

Cc1cn(C[C@H]2CCCN(C(=O)[C@H]3CN([C@H]4c5ccccc5CCc5cc(Cl)cnc54)CCN3C(=O)NC3CCCCC3)C2)cn1 [Example 318]
IC50 (Human tumor cells): 0.05 to 30 nM

Cc1cn(CC2CCCN(C(=O)C3CN(C4c5ncccc5CCc5cccc(Cl)c54)CCN3C(=O)OC(C)(C)C)C2)cn1 (centres unmarked) [Example 394]
IC50 (Human tumor cells): 0.05 to 30 nM

Cc1nccn1CC1CCCN(C(=O)C2CN(C3c4ncccc4CCc4cccc(Cl)c43)CCN2C(=O)OC(C)(C)C)C1 (centres unmarked) [Example 395]
IC50 (Human tumor cells): 0.05 to 30 nM

CC1(Cn2ccnc2)CCCN(C(=O)[C@H]2CN([C@H]3c4ccc(Cl)cc4CCc4cccnc43)CCN2C(=O)OC2CCCCC2)C1 (some centres unmarked) [Example 415]
IC50 (Human tumor cells): 0.05 to 30 nM

Cc1cn(C[C@@]2(C)CCCN(C(=O)[C@H]3CN([C@H]4c5ccc(Cl)cc5CCc5cccnc54)CCN3C(=O)OC3CCCCC3)C2)cn1 [Example 416]
IC50 (Human tumor cells): 0.05 to 30 nM

Cc1cn(C[C@]2(C)CCCN(C(=O)[C@H]3CN([C@H]4c5ccc(Cl)cc5CCc5cccnc54)CCN3C(=O)OC3CCCCC3)C2)cn1 [Example 417]
IC50 (Human tumor cells): 0.05 to 30 nM

CC1CCC(Cn2ccnc2)CN1C(=O)[C@H]1CN([C@H]2c3ccc(Cl)cc3CCc3cccnc32)CCN1C(=O)OC1CCCCC1 (some centres unmarked) [Example 424]
IC50 (Human tumor cells): 0.05 to 30 nM
